Laboratory results taken from US20040063787A1, “Vaginal health products” (priority 2002, published 2004).
Entries after “also recorded” stand apart in the source; their conditions may differ.

Legend:
Assay type in all cases: cell-based, human
ME-180 cells = assay: Toxicity & proliferation experiments, ME-180 cell counting; details: for effect on ME-180 cell growth: 1 nM, 10 nM, and 100 nM; for ME-180 cell number / cell growth versus no retinoic acid (negative control): 1 μM or 10 μM (micromolar concentrations)
Method: Cell Lines. Human cervical epithelial cells (ME-180, ATCC) were propagated in culture at 37° C. in a 5% CO2 atmosphere in McCoy's 5A media (Invitrogen) with 10% heat-inactivated fetal bovine serum (Invitrogen). All trans-, 9-cis-, and 13-cis-retinoic acids were purchased from ICN Biomedicals. Retinoic acid stock solutions were made up in DMSO.
Toxicity & Proliferation Experiments. Cellular toxicity/proliferation experiments were performed by first washing the ME-180 cells with HBSS, and adding 3 mL of trypsin (0.25%) with EDTA to the T75 flask for 15 minutes. ME-180 cells in trypsin were added to 7 mL of McCoy's 5A media with 10% FBS. ME-180 cells were centrifuged for 5 minutes, and the supernatant was removed. ME-180 cells were resuspended in 10 mL of McCoy's 5A media with 10% FBS for counting. ME-180 cells were centrifuged for 5 minutes, and the supernatant was removed. ME-180 cells were resuspended at 6×10^4 cells per mL (62 mL total volume). One milliliter was added to each of 60 wells in a total of three 24-well plates. ME-180 cells were allowed to adhere to the wells overnight. The media was then removed from the ME-180 cells, and the cells were washed one time with 1 mL of HBSS. One mL of McCoy's 5A media with 10% FBS was added in duplicate on each plate containing the retinoic acids in various concentrations (0-10 μM). ME-180 cells in each plate were counted on day 1, 2, or 3 after the addition of the retinoic acid-containing media.
Cell counting. Media was removed from the ME-180 cells, and the cells were washed one time with 1 mL of HBSS. Trypsin was added (150 μL) to each well for ˜15 minutes to remove cells. One mL of McCoy's 5A media with 10% FBS was added to each well. ME-180 cells were mixed thoroughly and counted using a hemocytometer.
Cell Proliferation of ME-180 Cells. ME-180 cells were incubated with vitamin A derivatives for a period of up to 3 days. ME-180 cells were counted on each day.

P2Y2 receptor gene = assay: RT-PCR expression assay of P2Y2 in ME-180 cells; details: 100 nM
Method: (§1) RNA Extraction from ME-180 cells. ME-180 cells were plated at 2×10^5 cells per T25 flask (5 mL total volume) and were allowed to propagate for four days. On day four, the media was removed. Five mL of McCoy's 5A media with 10% FBS containing 0, 10 nM, 100 nM, or 1 μM trans-retinoic acid were added to ME-180 cells in duplicate. ME-180 cells were incubated with these solutions for 4, 8, 16, or 24 hours. The media was removed, and 700 μL of lysis buffer was added to the flasks. The cells were scraped off of the flask with a cell scraper. The RNA was isolated using the Ambion RNAqueous kit according to the manufacturer's instructions. Precipitated RNA was resuspended in DEPC-treated water with 1 μL of RNase inhibitor. Total cervical RNA used as a control was purchased from Ambion, Inc.
(§2) Reverse Transcripton of RNA. Approximately 7 μL of RNA was incubated with 3 μL of primer at 80° C. for 10 minutes then immediately placed on ice. A master mix containing 4 μL DEPC water, 4 μL 5× reaction buffer, 1 μL dNTPs, 1 μL of RNase inhibitor, and 1 μL of reverse transcriptase was made for the reactions. Ten μL of master mix was added to the RNA/primer solution and placed at 42° C. for 2 hours. The resulting cDNA was incubated with 3.5 μL of NaOH solution at 70° C. for 10 minutes to hydrolyze the remaining RNA. Five μL of 0.5M Tris/EDTA was added to neutralize the solution. […]

[1] = test system: estrogen receptor alpha (ER-α) gene; assay: RT-PCR expression assay of ER-α in ME-180 cells; details: 100 nM, no serum, 4, 8, and 16 hours, FIG. 4 lanes 4-6, listed as vitamin A
Method: as §1, with “Five mL of McCoy's 5A media with 10% FBS containing 0, 10 nM, 100 nM, or 1 μM trans-retinoic acid were added to ME-180 cells in duplicate.” left out
as §2, with “solution. To precipitate the cDNA, 125 μL of 3M NH4OAc, 5 μL of linear polyacrylamide, and 700 μL of absolute ethanol were added.” for “solution.”

[2] = test system: vascular endothelial growth factor (VEGF); assay: RT-PCR expression assay of VEGF in ME-180 cells; details: 100 nM, 4, 8, and 16 hours, FIG. 5
Method: as §1, §2

mucin-4 (MUC-4) = assay: RT-PCR expression assay of mucin-4 in ME-180 cells; details: 100 nM, absence of serum
Method: as §1, with “Five mL of McCoy's 5A media with 10% FBS containing 0, 10 nM, 100 nM, or 1 μM trans-retinoic acid were added to ME-180 cells in duplicate.” left out
as §2, with “solution. To precipitate the cDNA, 125 μL of 3M NH4OAc, 5 μL of linear polyacrylamide, and 700 μL of absolute ethanol were added.” for “solution.”

SMILES | effect on ME-180 cell growth (ME-180 cells; up to 3 days, FIG. 1) | toxicity to ME-180 cells (ME-180 cells; micromolar concentrations) | ME-180 cell growth versus negative control (ME-180 cells; micromolar concentrations, two days, FIG. 2) | toxicity (overall conclusion of the experiments) (ME-180 cells) | growth compared with cells exposed to other agents or to no agents (ME-180 cells; 1 nM to 100 nM, up to 3 days, FIG. 1) | ME-180 cell number / cell growth versus no retinoic acid (negative control) (ME-180 cells; two days, FIG. 2) | ME-180 cell number / cell growth versus no retinoic acid (negative control) (ME-180 cells; two days, FIG. 2, listed as Vitamin A) | P2Y2 expression (PCR product) (P2Y2 receptor gene; in the absence of serum, FIG. 3 lanes 8-11) | P2Y2 expression (PCR product) (P2Y2 receptor gene; in the presence of serum, FIG. 3 lanes 4-6) | ER-α gene expression (PCR product) [1] | VEGF expression (PCR product) [2] | MUC-4 expression (PCR product) (mucin-4 (MUC-4); 4 hours or 8 hours, FIG. 6 lanes 4 and 5) | MUC-4 expression (PCR product) (mucin-4 (MUC-4); 16 hours, FIG. 6 lane 6)
CC1=C(/C=C/C(C)=C\C=C\C(C)=C\C(=O)O)C(C)(C)CCC1 [9-cis-retinoic acid] | little effect on cell growth | – | – | – | – | – | – | – | – | – | – | – | –
CC1=C(/C=C/C(C)=C/C=C/C(C)=C\C(=O)O)C(C)(C)CCC1 [13-cis-retinoic acid] | little effect on cell growth | toxic | did not grow as well as the negative control | – | – | – | – | – | – | – | – | – | –
CC1=C(/C=C/C(C)=C/C=C/C(C)=C/C(=O)O)C(C)(C)CCC1 [trans-retinoic acid] | little effect on cell growth | – | – | nontoxic | growing slightly faster | more cells were present | increases cervical cell growth | increase in P2Y2 expression | increase in P2Y2 expression | the ER-α gene was expressed; also recorded: increase in ER-α expression | increased the expression | detectable | decreases but is still detectable
